From patent publication US10875847B2, “Aminopyrazoles as selective janus kinase inhibitors” (Intervet Inc., priority 2016, dated 2020)
Like-named read-outs stand apart in the source and are kept apart here.

What was measured:
JAK3 = JAK3 (Homo sapiens (Human), UniProt P52333); test: Jak biochemical HTRF enzyme assay, JAK3; details: Table 1
Description: Jak Biochemical HTRF Enzyme Assay Protocol
The ability of compounds to inhibit the catalytic activity of JAK1, JAK2, JAK3, and TYK2 was quantified using a recombinant purified GST-tagged catalytic domain for each enzyme (InVitrogen/Life Technologies/ThermoFisher, catalogue #s: JAK1, #M4290; […]) in an HTRF format biochemical assay. […] Subsequent reagent additions employed an Agilent Bravo automated liquid handler. […] After normalization to untreated controls, the percent inhibition of the HTRF signal at each compound concentration was calculated. The plot of percent inhibition versus the log value of compound concentration was done as described above for cell assays to calculate IC50 values.

[1] = 6-week pilot target animal safety study; details: for NOAEL at 6 weeks: dog, in vivo, po
Protocol: The drug was administered orally, as a compressed tablet, twice per day for 6 weeks to dogs at 1, 3, and 5 times the maximum exposure dose of 0.5 mg/kg, or once per day for 6 weeks to dogs at 5 times the maximum exposure dose of 1 mg/kg.

JAK1 = JAK1 (Homo sapiens (Human), UniProt P23458); test: Jak biochemical HTRF enzyme assay, JAK1
[2] = tested on: Interleukin 6 (IL6)—JAK1/JAK2-STAT4 Pathway; test: IL6 CellSensor cell pathway engagement assay (SIE-bla ME-180 cells); details: for IC50: Homo sapiens; for EPO/IL-6: Table 3, comparative examples
Description: Inhibition of the activity of JAK1 and JAK2 kinases in intact cells was quantified in antagonist mode using CellSensor® transcriptional reporter technology (Life Technologies/ThermoFisher: https://www.thermofisher.com/us/en/home/industrial/pharma-biopharma/drug-discovery-development/target-and-lead-identification-and-validation/pathway-biology/cellular-pathway-analysis/cellsensor-cell-lines.html), in two independent cell lines engineered to detect IL4, IL6 and EPO signaling. In brief, CellSensor® cell lines (see details below for each assay) carrying a stably integrated β-Lactamase reporter gene under control of specific cis-regulatory STAT elements responsive to the pathway being monitored were pre-treated with test compounds serially diluted in DMSO (see preparation and dosing of compounds and agonist cytokines section). […] Incubation with compounds, cytokines and LiveBLAzer™ were carried out at 37° C. in a tissue culture incubator maintained at 90% humidity and 5% CO2.
Interleukin 6 (IL6)—JAK1/JAK2-STAT4 Pathway:
CellSensor™ SIE-bla ME-180 cells carrying a stably integrated β-Lactamase reporter gene under control of the Sis-Inducible Element (SIE).
Each CellSensor® cell line was subsequently plated as per supplier's instructions (30,000 cells in 32 μL/well) and mixed with compound. Following a 60 minute incubation cells were subsequently stimulated by addition of 8 μL of cognate cytokine (EC80 dose of IL6 and EPO) and incubated for an additional 3 hours, before adding LiveBLAzer™-FRET B/G substrate.

[3] = tested on: Erythropoietin (EPO)—JAK2-STAT5 Pathway; test: EPO CellSensor cell pathway engagement assay (irf1-bla TF-1 cells); format: cell-based; details: Homo sapiens, Table 1
Protocol: In brief, CellSensor® cell lines (see details below for each assay) carrying a stably integrated β-Lactamase reporter gene under control of specific cis-regulatory STAT elements responsive to the pathway being monitored were pre-treated with test compounds serially diluted in DMSO (see preparation and dosing of compounds and agonist cytokines section). […] Incubation with compounds, cytokines and LiveBLAzer™ were carried out at 37° C. in a tissue culture incubator maintained at 90% humidity and 5% CO2.
CellSensor irf1-bla TF-1 cells carry a stably integrated β-Lactamase reporter gene under control of the STAT5 Response Elements present in the Interferon Regulatory Factor I (IRF1) gene promoter.

[4] = Dog pharmacokinetics after IV administration; details: in vivo, 0.25 mg/kg I.V.
Protocol: Examples of the instant invention were evaluated in JAK1, JAK2, and JAK3 in vitro binding assays, and IL-6 and EPO cell pathway engagement assays, as described above. Table 1 tabulates the IC50 values of the instant invention in the JAK1, JAK2, and JAK3 in the in vitro binding assays, and the IL-6 and EPO cell pathway engagement assays, as well as the ratio of the JAK2/JAK1 IC50s, JAK3/JAK1 IC50s, and the EPO/IL-6 IC50s. Table 2 tabulates the pharmacokinetic parameters of the instant invention in the dog after IV administration.

cIL-31 induced pruritus = test: IL-31 induced itching model; format: in vivo, Beagle dogs
[5] = IL-31 induced itching model; format: in vivo, Beagle dogs; details: dog, in vivo, 1 mg/kg body weight; Beagle dogs, dosing before cIL-31 challenge; read-out: approximate Tmax
[6] = dogs, higher doses; cited from earlier work
[7] = dogs with allergic or atopic dermatitis; cited from earlier work
[8] = dogs, oral, 6 weeks, up to 5 times maximum exposure dose
[9] = ME-180, read-out: IL-6 IC50 (nM)
[10] = 0.5 mg/kg body weight, second study

JAK1, sequence (P23458 875-1153): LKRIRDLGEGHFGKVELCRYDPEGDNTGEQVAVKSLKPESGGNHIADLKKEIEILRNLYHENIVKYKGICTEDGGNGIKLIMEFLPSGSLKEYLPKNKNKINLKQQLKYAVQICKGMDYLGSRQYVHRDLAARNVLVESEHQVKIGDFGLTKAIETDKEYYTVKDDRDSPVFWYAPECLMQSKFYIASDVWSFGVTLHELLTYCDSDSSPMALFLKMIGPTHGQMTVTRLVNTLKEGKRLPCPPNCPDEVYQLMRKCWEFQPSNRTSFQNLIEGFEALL
JAK3, sequence (P52333 822-1111): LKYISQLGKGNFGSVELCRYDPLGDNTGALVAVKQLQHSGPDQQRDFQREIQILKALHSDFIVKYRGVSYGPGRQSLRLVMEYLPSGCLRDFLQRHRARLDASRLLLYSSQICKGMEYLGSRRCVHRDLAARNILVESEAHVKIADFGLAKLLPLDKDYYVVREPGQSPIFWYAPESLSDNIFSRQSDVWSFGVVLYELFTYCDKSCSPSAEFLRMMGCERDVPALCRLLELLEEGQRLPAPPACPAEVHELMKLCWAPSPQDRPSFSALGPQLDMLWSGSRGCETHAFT

COc1cc(Nc2nn([C@H]3COCC[C@@H]3C#N)cc2C(N)=O)cc(F)n1 (single isomer, unassigned) [Compound 1, 1-((3R,4S) or (3S,4R)-4-cyanotetrahydro-2H-pyran-3-yl)-3-((2-fluoro-6-methoxypyridin-4-yl)amino)-1H-pyrazole-4-carboxamide]
IC50 (JAK3): 1130 nM | NOAEL at 6 weeks [1]: 2.5 mg/kg | NOAEL at 6 weeks ([1]; 5 mg/kg once per day): 5 mg/kg/day | test article related effects in clinical observations, fecal observations, body weight, food consumption, physical examination, blood pressure, ophthalmology, cardiology [1, 8]: No test article related effects were observed | test article related effects in postmortem evaluations (organ weights, macroscopic and microscopic findings) [1, 8]: No test article related effects were observed | IC50 (JAK1): 0.43 nM | IC50 [2, 9]: 41.8 nM | IC50 [3]: 460 nM | AUC [4]: 1.29 µM·h | clearance [4]: 9.42 mL/min/kg | half-life [4]: 4.38 h | Vd ([4]; read-out: Vdss): 1.95 L/kg | suppression of cIL-31 induced pruritus (cIL-31 induced pruritus; 0.05 mg/kg body weight (sentence prints 0.5), second study): not | suppression of cIL-31 induced pruritus (cIL-31 induced pruritus; 0.1 mg/kg body weight, second study): not | magnitude of effect compared with Apoquel (cIL-31 induced pruritus; [10]): similar | suppression of cIL-31 induced pruritus (cIL-31 induced pruritus; [10]): significantly suppressed | suppression of cIL-31 induced pruritus (cIL-31 induced pruritus; 1 mg/kg body weight, dosed 2 h prior to cIL-31 challenge, first study): significantly suppressed | magnitude of pruritus suppression compared with Apoquel (cIL-31 induced pruritus; 1 mg/kg body weight, first study): similar | Tmax [5]: ~2 h

CN(C)[C@H]1CC[C@H](n2cc(C(N)=O)c(Nc3ccc(Cl)cc3)n2)[C@@H](C#N)C1 (single isomer, unassigned) [Reference Compound A, 3-[(4-chlorophenyl)amino]-1-[(1S,2S,4S or 1R,2R,4R)-2-cyano-4-(dimethylamino)cyclohexyl]-1H-pyrazole-4-carboxamide]
IC50 (JAK1; Table 3, comparative examples): 1.67 nM

CS(=O)(=O)c1ccc(Nc2nn([C@H]3CCCC[C@@H]3C#N)c3cc[nH]c(=O)c23)cc1 [B, (1S,2S)-2-(3-{[4-(methylsulfonyl)phenyl]amino}-4-oxo-4,5-dihydro-1H-pyrazolo[4,3-c]pyridin-1-yl)cyclohexanecarbonitrile]
potency in IL6 CellSensor assay relative to EPO CellSensor assay ([2]; IL6 versus EPO assay): within two-three fold

COc1cc(Nc2nn([C@@H]3COCC[C@H]3C#N)cc2C(N)=O)cc(F)n1 [Enantiomer of 1]
IC50 (JAK3): > 1250 nM | IC50 (JAK1; Table 1): 17.7 nM | IC50 [2, 9]: 2440 nM | IC50 [3]: 9480 nM

N#CCC1(n2cc(-c3ncnc4[nH]ccc34)cn2)CN(C2CCN(C(=O)c3ccnc(C(F)(F)F)c3F)CC2)C1 [INCB39110]
IC50 (JAK1; Table 3, comparative examples): 0.3 nM | JAK2/1 (JAK1; Table 3, comparative examples): 10x | IC50 ([2]; ME-180, read-out: IL-6 IP (nM)): 97 nM | EPO/IL-6 [2]: 5x

N#CC[C@H](C1CCCC1)n1cc(-c2ncnc3[nH]ccc23)cn1 [JAKAFI]
JAK2/1 (JAK1): 0.7x | IC50 ([2]; ME-180, read-out: IL-6 IP (nM)): 40 nM | EPO/IL-6 [2]: 0.2x

CNS(=O)(=O)C[C@H]1CC[C@H](N(C)c2ncnc3[nH]ccc23)CC1 [Oclacitinib]
IC50 (JAK1; Table 3, comparative examples): 3.4 nM | JAK2/1 (JAK1; Table 3, comparative examples): 2.0x | IC50 ([2]; ME-180, read-out: IL-6 IP (nM)): 230 nM | EPO/IL-6 [2]: 2.4x | effect on hematocrit, hemoglobin and reticulocyte counts [6]: reduction | effect on pruritus and lesions [7]: rapid amelioration of pruritus and reduces lesions
